Literature values in patent US12178826B2, “Formulations for the delivery of autophagy stimulating trehalose” (priority 2017, dated 2024).

Assays:
[1] = system: mutant SOD1 transgenic mice; details: Trehalose administration
[2] = after inhalation; general statement, no test described

## OC[C@H]1O[C@H](O[C@H]2O[C@H](CO)[C@@H](O)[C@H](O)[C@H]2O)[C@H](O)[C@@H](O)[C@@H]1O [Trehalose, (2R,3S,4S,5R,6R)-2-(Hydroxymethyl)-6-[(2R,3R,4S,5S,6R)-3,4,5-trihydroxy-6-(hydroxymethyl)oxan-2-yl]oxyoxane-3,4,5-triol]
[1]
  accumulation of SOD1 aggregates: decreased accumulation of SOD1 aggregates
  life span: significantly prolonged life span
  motoneuron survival: enhanced motoneuron survival
NSC34 motoneuron cells
  mutant SOD1 degradation by autophagy: led to mutant SOD1 degradation by autophagy
[2]
  time to absorption from the lungs into the bloodstream: ≤ 2 h
